≈ marks a conversion by molar mass, not a printed value.
Columns and labels:
[1] = Inhibition of wild type Streptococcus pneumoniae LigA
[2] = Inhibition of Enterococcus faecalis LigA
DNA ligase = DNA ligase (Staphylococcus aureus, UniProt Q9AIU7); assay: Inhibition of Staphylococcus aureus LigA
[3] = Inhibition of Haemophilus influenzae LigA
Streptococcus pneumoniae [4] = assay: Antibacterial activity against Streptococcus pneumoniae ARC548; type: functional
[5] = Inhibition of Streptococcus pneumoniae LigA L75F mutant
Streptococcus pneumoniae [6] = assay: Selectivity ratio of IC50 for Streptococcus pneumoniae LigA L75F mutant to IC50 for wild type Streptococcus pneumoniae LigA

Row | IC50 [1] [µM] | IC50 [2] [µM] | IC50 (DNA ligase) [µM] | IC50 [3] [µM] | Compound | MIC (Streptococcus pneumoniae [4]) [µg/mL] | IC50 [5] [µM] | Ratio IC50 (Streptococcus pneumoniae [6])
1 | 200 | > 200 | > 200 | > 200 | Cc1cc2c(N)ncc(C(N)=O)c2s1 | – | – | –
2 | 36 | 130 | 39 | > 200 | NC(=O)c1cnc(N)c2c(Br)csc12 | – | – | –
3 | > 140 | > 200 | > 200 | > 200 | Cc1csc2c(C(N)=O)cnc(N)c12 | – | – | –
4 | 52 | > 200 | 69 | > 200 | NC(=O)c1cnc(N)c2c(C(N)=O)csc12 | – | – | –
5 | 25 | > 200 | > 200 | > 200 | NC(=O)c1cnc(N)c2ccsc12 | – | – | –
6 | 9.4 | 34 | 15 | > 200 | NC(=O)c1cc2c(N)ncc(C(N)=O)c2s1 | – | – | –

Continued, molecule first:

Row | Compound | IC50 [1] [µM] | IC50 [2] [µM] | IC50 (DNA ligase) [µM] | IC50 [3] [µM] | MIC (Streptococcus pneumoniae [4]) [µg/mL] | IC50 [5] [µM] | Ratio IC50 (Streptococcus pneumoniae [6])
7 | NC(=O)c1cnc(N)c2cc(-c3ccn[nH]3)sc12 | 29 | 100 | 36 | > 200 | – | – | –
8 | Nc1nc(OC2CCCC2)nc2c1ncn2[C@@H]1O[C@H](CO)[C@@H](O)[C@H]1O | 0.21 | – | 0.43 | 0.51 | 8 (≈ 22.8 µM) | 33 | –
9 | CCNC(=O)c1cc2c(N)ncc(C(N)=O)c2s1 | 140 | > 200 | 75 | > 200 | – | – | –
10 | NC(=O)c1cnc(N)c2cc(Br)sc12 | 21 | 77 | 48 | 160 | > 64 | 48 | 2
11 | Cc1c(Br)sc2c(C(N)=O)cnc(N)c12 | 3.1 | 8.1 | 7.1 | > 200 | – | 37 | –
12 | NC(=O)c1cnc(NCCO)c2cc(Br)sc12 | > 200 | > 200 | > 200 | > 200 | – | – | –
13 | NC(=O)c1cnc(Nc2ccccc2)c2cc(Br)sc12 | > 200 | 160 | 150 | 160 | – | – | –
14 | CCCNc1ncc(C(N)=O)c2sc(Br)cc12 | 150 | 130 | 180 | 200 | – | – | –
15 | NC(=O)c1cnc(N)c2c(-c3ccn[nH]3)csc12 | 100 | > 200 | > 200 | > 200 | – | – | –
16 | CCOC(=O)c1cc2c(N)ncc(C(N)=O)c2s1 | 9.4 | 74 | 8.9 | > 200 | – | – | –

Reference: ChEMBL document CHEMBL3098126, “Identification through structure-based methods of a bacterial NAD(+)-dependent DNA ligase inhibitor that avoids known resistance mutations” (Bioorg Med Chem Lett, 2014)
